The values that follow come from patent US20230124095A1 (AMORPHICAL LTD., priority 2020, published 2023).

The test system of this experiment is Cathepsin B. The experiment is described as follows: Cathepsin B activity in lysate of LNCaP clone FGC cells. The format is cell-based, human. As to conditions: 4 passages in supplemented medium.

On to `[Ca+2].[Cl-].[Cl-]` [CaCl2, calcium chloride], for which the “reduction of Cathepsin B activity compared to untreated control” value was 16%.
